# Laboratory results: patent US20230373952A1, “LACTAM COMPOUNDS AS Kv1.3 POTASSIUM SHAKER CHANNEL BLOCKERS” (D.E. Shaw Research, LLC, priority 2020, published 2023)
# Like-named read-outs stand apart in the source and are kept apart here.
# What was measured:
# [1] = molecular target: T1, Kv1.3 potassium channel (Homo sapiens, UniProt P22001); experiment: Kv1.3 potassium channel blocker activity, automated whole-cell patch clamp (Patchliner); assay type: cell-based; settings: whole-cell current inhibition, Hill fit
# T1 construct: expressed in transfected cells
# Procedure: CHO-K1 cells stably expressing Kv1.3 were grown in DMEM containing 10% heat-inactivated FBS, 1 mM sodium pyruvate, 2 mM L-glutamine and G418 (500 μg/ml).
# The currents were evoked by applying 100 ms depolarizing pulses from −90 mV (holding potential) to +40 mV were applied with 0.1 Hz frequency. […] 10-second breaks were used between pulse trains (see Table H below).
# Passive leak currents were subtracted online using a P/4 procedure (HEKA Elektronik Dr. Schulze GmbH). […] Total compound incubation time before the next pulse train was not longer than 10 seconds. Peak current inhibition was observed during compound equilibration.
# [2] = molecular target: hERG channel (Homo sapiens, UniProt Q12809); experiment: cell-based
# Procedure: This assay is used to evaluate the disclosed compounds' inhibition activities against the hERG channel.
# CHO-K1 cells stably expressing hERG were grown in Ham's F-12 Medium with glutamine containing 10% heat-inactivated FBS, 1% penicillin/streptomycin, hygromycin (100 μg/ml) and G418 (100 μg/ml). Cells were grown in culture flasks at 37° C. in a 5% CO2-humidified incubator.
# All compounds were dissolved in DMSO at 30 mM. Compound stock solutions were freshly diluted with external solution to concentrations of 30 nM, 100 nM, 300 nM, 1 μM, 3 μM, 10 μM, 30 μM and 100 μM. The highest content of DMSO (0.3%) was present in 100 μM.
# The voltage protocol (see Table I) was designed to simulate voltage changes during a cardiac action potential with a 300 ms depolarization to +20 mV (analogous to the plateau phase of the cardiac action potential), a repolarization for 300 ms to −50 mV (inducing a tail current) and a final step to the holding potential of −80 mV. The pulse frequency was 0.3 Hz. Control (compound-free) and compound pulse trains for each compound concentration applied contained 70 pulses.
# Whole-cell current recordings and compound application were enabled by means of an automated patch clamp platform Patchliner (Nanion). EPC 10 patch clamp amplifier (HEKA) along with Patchmaster software (HEKA Elektronik Dr. Schulze GmbH) was used for data acquisition. Data were sampled at 10 kHz without filtering. Increasing compound concentrations were applied consecutively to the same cell without washouts in between.
# AUC and PEAK values were obtained with Patchmaster (HEKA Elektronik Dr. Schulze GmbH). To determine IC50 the last single pulse in the pulse train corresponding to a given compound concentration was used. Obtained AUC and PEAK values in the presence of compound were normalized to control values in the absence of compound.
# [3] = CHO-K1 cells stably expressing Kv1.3, read-out: Kv1.3 IC50
# T1 sequence (P22001 whole entry): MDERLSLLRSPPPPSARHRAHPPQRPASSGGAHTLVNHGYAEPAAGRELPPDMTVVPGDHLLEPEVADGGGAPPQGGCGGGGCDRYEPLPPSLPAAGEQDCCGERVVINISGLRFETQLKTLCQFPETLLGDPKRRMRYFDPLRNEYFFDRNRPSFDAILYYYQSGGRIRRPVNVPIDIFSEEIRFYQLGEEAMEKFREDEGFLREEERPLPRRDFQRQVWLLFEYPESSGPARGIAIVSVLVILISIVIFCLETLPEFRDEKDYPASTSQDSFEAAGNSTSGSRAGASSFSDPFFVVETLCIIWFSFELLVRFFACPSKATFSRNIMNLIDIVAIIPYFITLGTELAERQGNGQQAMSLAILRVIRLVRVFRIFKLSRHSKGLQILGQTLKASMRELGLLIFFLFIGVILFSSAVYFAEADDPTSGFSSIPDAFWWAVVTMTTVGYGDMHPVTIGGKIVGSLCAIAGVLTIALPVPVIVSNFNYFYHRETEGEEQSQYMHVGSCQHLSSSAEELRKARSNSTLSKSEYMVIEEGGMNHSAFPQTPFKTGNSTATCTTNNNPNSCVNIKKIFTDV
# Chain of hERG channel (Q12809 whole entry): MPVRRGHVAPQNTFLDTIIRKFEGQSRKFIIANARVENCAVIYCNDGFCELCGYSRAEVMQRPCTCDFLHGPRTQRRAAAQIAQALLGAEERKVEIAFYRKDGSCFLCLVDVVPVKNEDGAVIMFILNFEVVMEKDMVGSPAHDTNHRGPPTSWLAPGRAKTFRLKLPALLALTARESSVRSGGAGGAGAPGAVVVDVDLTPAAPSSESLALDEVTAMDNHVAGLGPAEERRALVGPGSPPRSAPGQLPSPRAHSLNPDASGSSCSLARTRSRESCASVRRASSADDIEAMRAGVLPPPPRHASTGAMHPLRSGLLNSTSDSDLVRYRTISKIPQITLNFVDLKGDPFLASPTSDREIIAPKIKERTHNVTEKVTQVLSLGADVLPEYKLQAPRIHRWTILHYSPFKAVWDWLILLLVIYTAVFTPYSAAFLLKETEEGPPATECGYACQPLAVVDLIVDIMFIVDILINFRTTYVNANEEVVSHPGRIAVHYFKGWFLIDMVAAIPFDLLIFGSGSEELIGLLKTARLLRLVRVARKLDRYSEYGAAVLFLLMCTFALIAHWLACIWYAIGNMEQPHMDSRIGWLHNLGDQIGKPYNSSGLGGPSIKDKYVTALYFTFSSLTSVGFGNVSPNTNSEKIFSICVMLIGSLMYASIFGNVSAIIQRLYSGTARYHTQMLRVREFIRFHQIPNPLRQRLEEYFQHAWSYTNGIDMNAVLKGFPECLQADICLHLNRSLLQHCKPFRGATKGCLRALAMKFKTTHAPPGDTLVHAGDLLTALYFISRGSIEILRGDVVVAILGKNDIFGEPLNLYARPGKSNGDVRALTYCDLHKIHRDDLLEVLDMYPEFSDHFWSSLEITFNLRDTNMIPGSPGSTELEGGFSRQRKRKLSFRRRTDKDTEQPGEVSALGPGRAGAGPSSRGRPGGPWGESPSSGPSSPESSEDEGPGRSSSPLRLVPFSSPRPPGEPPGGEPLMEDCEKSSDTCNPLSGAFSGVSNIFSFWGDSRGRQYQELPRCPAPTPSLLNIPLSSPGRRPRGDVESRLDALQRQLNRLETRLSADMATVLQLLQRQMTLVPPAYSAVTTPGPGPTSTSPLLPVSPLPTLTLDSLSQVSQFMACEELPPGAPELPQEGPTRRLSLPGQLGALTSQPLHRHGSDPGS
SMILES,"IC50 ([1]; Kv1.3 IC50, CHO-K1 cells stably expressing Kv1.3) [µM]",IC50 [2] [µM],"IC50 [1, 3] [µM]"
"NC(=O)CN1C[C@H](c2c(O)ccc(Cl)c2Cl)CC1=O [Compound 34, 2-[(4S)-4-(2,3-dichloro-6-hydroxyphenyl)-2-oxopyrrolidin-1-yl]acetamide]",< 0.1,> 100,
"O=C1C[C@@H](c2c(O)ccc(Cl)c2Cl)CN1c1cn[nH]c1 [Compound 58, (S)-4-(2,3-dichloro-6-hydroxyphenyl)-1-(1H-pyrazol-4-yl)pyrrolidin-2-one]",,> 30,< 0.1
"O=C1C[C@@H](c2c(O)ccc(Cl)c2Cl)CN1CC1CNC1 [Compound 20, (4S)-1-(azetidin-3-ylmethyl)-4-(2,3-dichloro-6-hydroxyphenyl)pyrrolidin-2-one]",,> 100,< 0.1
"COCCN1C[C@H](c2c(O)ccc(Cl)c2Cl)CC1=O [Compound 36, (4S)-4-(2,3-dichloro-6-hydroxyphenyl)-1-(2-methoxyethyl)pyrrolidin-2-one]",,> 30,< 0.1
"Cn1cc(N2C[C@H](c3c(O)ccc(Cl)c3Cl)NC2=O)cn1 [Compound 100, (4S)-4-(2,3-dichloro-6-hydroxyphenyl)-1-(1-methylpyrazol-4-yl)imidazolidin-2-one]",,> 30,< 0.1
"O=C1C[C@@H](c2c(O)ccc(Cl)c2Cl)CN1CCC(F)(F)F [Compound 37, (4S)-4-(2,3-dichloro-6-hydroxyphenyl)-1-(3,3,3-trifluoropropyl)pyrrolidin-2-one]",,> 100,< 1
"O=C1C[C@@H](c2c(O)ccc(Cl)c2Cl)CN1c1cnoc1 [Compound 72, (4S)-4-(2,3-dichloro-6-hydroxyphenyl)-1-(isoxazol-4-yl)pyrrolidin-2-one]",,> 100,< 1
"O=C1C[C@@H](c2c(O)ccc(Cl)c2Cl)CN1CCCO [Compound 35, (4S)-4-(2,3-dichloro-6-hydroxyphenyl)-1-(3-hydroxypropyl)pyrrolidin-2-one]",,> 30,< 0.01
"O=C1C[C@H](c2c(O)ccc(Cl)c2Cl)CN1[C@H]1CCNC1 (single isomer, unassigned) [Compound 15, 4-(2,3-dichloro-6-hydroxyphenyl)-[1,3-bipyrrolidin]-2-one]",,> 30,< 0.1
"C[C@H](O)CN1C[C@H](c2c(O)ccc(Cl)c2Cl)CC1=O [Compound 54, (4S)-4-(2,3-dichloro-6-hydroxyphenyl)-1-[(2S)-2-hydroxypropyl]pyrrolidin-2-one]",,> 30,< 0.1
"O=C1C[C@@H](c2c(O)ccc(Cl)c2Cl)CN1[C@H]1C[C@@](O)(CO)C1 (single isomer, unassigned; isomer 3) [Compound 70]",,> 100,< 0.1
"O=C1C[C@@H](c2c(O)ccc(Cl)c2Cl)CN1c1ccncc1 [Compound 64, (S)-4-(2,3-dichloro-6-hydroxyphenyl)-1-(pyridin-4-yl)pyrrolidin-2-one]",,> 10,< 0.1
"CC(O)(CO)CN1C[C@H](c2c(O)ccc(Cl)c2Cl)CC1=O (stereo partly drawn) [Compound 55, (4S)-4-(2,3-dichloro-6-hydroxyphenyl)-1-(2,3-dihydroxy-2-methylpropyl)pyrrolidin-2-one]",,> 100,< 1
"O=C1N[C@@H](c2c(O)ccc(Cl)c2Cl)CCN1[C@@H]1CCNC1 (single isomer, unassigned) [Compound 9, 4-(2,3-dichloro-6-hydroxyphenyl)-1-[pyrrolidin-3-yl]-tetrahydropyrimidin-2(1H)-one]",,> 10,< 1
"O=C1C[C@@H](c2c(O)ccc(Cl)c2Cl)CN1CC1(CO)CNC1 [Compound 46, (S)-4-(2,3-dichloro-6-hydroxyphenyl)-1-((3-(hydroxymethyl)azetidin-3-yl)methyl)pyrrolidin-2-one]",,> 100,< 0.1
"Cn1cc(CN2C[C@H](c3c(O)ccc(Cl)c3Cl)CC2=O)cn1 [Compound 23, (4S)-4-(2,3-dichloro-6-hydroxyphenyl)-1-[(1-methylpyrazol-4-yl)methyl]pyrrolidin-2-one]",,> 30,< 1
